In patent US20230093099A1, “COMPOUNDS AND METHODS OF TREATING CANCERS” (CULLGEN (SHANGHAI), INC., priority 2019, published 2023) one finds IC50 data, which are given here for 16 compounds.

The experiment relates to RS4;11 cells. As to the kind of experiment: Cell viability assay (CellTiter-Glo) in RS4;11 cells. Conditions: Homo sapiens, 72 h; RS4;11 cells; cell viability, 3 days, CellTiter-Glo; read-out: IC50. Format: cell-based. An outline of the steps:
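RS4;11 cells seeded at 5000 per well, exposed for 3 days to 8- or 12-point 3-fold serial dilutions. Viability read by CellTiter-Glo luminescence; IC50 fitted by nonlinear least-squares regression.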
Turning to `CS(=O)(=O)c1ccc(-c2cccc3nc(Nc4ccc(N5CCN(CCCCCCOc6ccc7c(c6)C(=O)N(C6CCC(=O)NC6=O)C7=O)CC5)cc4)nn23)cc1` (stereo not shown) [JA-256, 2-(2,6-Dioxopiperidin-3-yl)-5-((6-(4-(4-((5-(4-(methylsulfonyl)phenyl)-[1,2,4]triazolo[1,5-a]pyridin-2-yl)amino)phenyl)piperazin-1-yl)hexyl)oxy)isoindoline-1,3-dione], the IC50 is 1900 nM.

In the case of `O=C1CCC(N2C(=O)c3ccc(CCCCCCC(=O)N4CCC(n5cc(-c6cnc7cccc(-c8cc(F)c(CN9CCOCC9)c(F)c8)c7n6)cn5)CC4)cc3C2=O)C(=O)N1` (stereo not shown) [JA-257, 5-(7-(4-(4-(8-(3,5-Difluoro-4-(morpholinomethyl)phenyl)quinoxalin-2-yl)-1H-pyrazol-1-yl)piperidin-1-yl)-7-oxoheptyl)-2-(2,6-dioxopiperidin-3-yl)isoindoline-1,3-dione], the IC50 is 137 nM. With `O=C1CCC(N2C(=O)c3ccc(C#CCCCCC(=O)N4CCC(n5cc(-c6cnc7cccc(-c8cc(F)c(CN9CCOCC9)c(F)c8)c7n6)cn5)CC4)cc3C2=O)C(=O)N1` (stereo not shown) [JA-258, 5-(7-(4-(4-(8-(3,5-Difluoro-4-(morpholinomethyl)phenyl)quinoxalin-2-yl)-1H-pyrazol-1-yl)piperidin-1-yl)-7-oxohept-1-yn-1-yl)-2-(2,6-dioxopiperidin-3-yl)isoindoline-1,3-dione], the IC50 was determined as 647 nM. The result for `O=C1CCC(N2Cc3ccc(C#CCCCCC(=O)N4CCC(n5cc(-c6cnc7cccc(-c8cc(F)c(CN9CCOCC9)c(F)c8)c7n6)cn5)CC4)cc3C2=O)C(=O)N1` (stereo not shown) [JA-259, 3-(6-(7-(4-(4-(8-(3,5-Difluoro-4-(morpholinomethyl)phenyl)quinoxalin-2-yl)-1H-pyrazol-1-yl)piperidin-1-yl)-7-oxohept-1-yn-1-yl)-1-oxoisoindolin-2-yl)piperidine-2,6-dione] reads above 10000 nM; that for `O=C1CCC(N2C(=O)c3ccc(OCCCCCC(=O)N4CCC(n5cc(-c6cnc7cccc(-c8cc(F)c(CN9CCOCC9)c(F)c8)c7n6)cn5)CC4)cc3C2=O)C(=O)N1` (stereo not shown) [JA-260, 5-((6-(4-(4-(8-(3,5-Difluoro-4-(morpholinomethyl)phenyl)quinoxalin-2-yl)-1H-pyrazol-1-yl)piperidin-1-yl)-6-oxohexyl)oxy)-2-(2,6-dioxopiperidin-3-yl)isoindoline-1,3-dione], 164 nM.

Consider `CS(=O)(=O)c1ccc(-c2cccc3nc(Nc4ccc(N5CCN(C(=O)CCCCCOc6ccc7c(c6)CN(C6CCC(=O)NC6=O)C7=O)CC5)cc4)nn23)cc1` (stereo not shown) [JA-261, 3-(5-((6-(4-(4-((5-(4-(methylsulfonyl)phenyl)-[1,2,4]triazolo[1,5-a]pyridin-2-yl)amino)phenyl)piperazin-1-yl)-6-oxohexyl)oxy)-1-oxoisoindolin-2-yl)piperidine-2,6-dione], for which the IC50 worked out at 32.8 nM. Consider `CS(=O)(=O)c1ccc(-c2cccc3nc(Nc4ccc(N5CCN(C(=O)CCCCC#Cc6ccc7c(c6)C(=O)N(C6CCC(=O)NC6=O)C7)CC5)cc4)nn23)cc1` (stereo not shown) [JA-262, 3-(6-(7-(4-(4-((5-(4-(Methylsulfonyl)phenyl)-[1,2,4]triazolo[1,5-a]pyridin-2-yl)amino)phenyl)piperazin-1-yl)-7-oxohept-1-yn-1-yl)-1-oxoisoindolin-2-yl)piperidine-2,6-dione], for which the IC50 is above 10000 nM. Consider `O=C1CCC(N2Cc3cc(OCCCCCC(=O)N4CCC(n5cc(-c6cnc7cccc(-c8cc(F)c(CN9CCOCC9)c(F)c8)c7n6)cn5)CC4)ccc3C2=O)C(=O)N1` (stereo not shown) [JA-263, 3-(5-((6-(4-(4-(8-(3,5-difluoro-4-(morpholinomethyl)phenyl)quinoxalin-2-yl)-1H-pyrazol-1-yl)piperidin-1-yl)-6-oxohexyl)oxy)-1-oxoisoindolin-2-yl)piperidine-2,6-dione], for which the IC50 is 3.6 nM.

Turning to `O=C1CCC(N2C(=O)c3ccc(C#CCCCCCN4CCC(n5cc(-c6cnc7cccc(-c8cc(F)c(CN9CCOCC9)c(F)c8)c7n6)cn5)CC4)cc3C2=O)C(=O)N1` (stereo not shown) [JA-264, 5-(7-(4-(4-(8-(3,5-difluoro-4-(morpholinomethyl)phenyl)quinoxalin-2-yl)-1H-pyrazol-1-yl)piperidin-1-yl)hept-1-yn-1-yl)-2-(2,6-dioxopiperidin-3-yl)isoindoline-1,3-dione], the IC50 turned out to be 98.6 nM. Regarding `O=C1CCC(N2C(=O)c3ccc(CCCCCCCN4CCC(n5cc(-c6cnc7cccc(-c8cc(F)c(CN9CCOCC9)c(F)c8)c7n6)cn5)CC4)cc3C2=O)C(=O)N1` (stereo not shown) [JA-265, 5-(7-(4-(4-(8-(3,5-Difluoro-4-(morpholinomethyl)phenyl)quinoxalin-2-yl)-1H-pyrazol-1-yl)piperidin-1-yl)heptyl)-2-(2,6-dioxopiperidin-3-yl)isoindoline-1,3-dione], the IC50 came out at 1350 nM. The result for `O=C1CCC(N2C(=O)c3ccc(NCCCCCCN4CCC(n5cc(-c6cnc7cccc(-c8cc(F)c(CN9CCOCC9)c(F)c8)c7n6)cn5)CC4)cc3C2=O)C(=O)N1` (stereo not shown) [JA-266, 5-((6-(4-(4-(8-(3,5-Difluoro-4-(morpholinomethyl)phenyl)quinoxalin-2-yl)-1H-pyrazol-1-yl)piperidin-1-yl)hexyl)amino)-2-(2,6-dioxopiperidin-3-yl)isoindoline-1,3-dione] reads 301 nM. For the compound `O=C1CCC(N2C(=O)c3ccc(OCCCCCCN4CCC(n5cc(-c6cnc7cccc(-c8cc(F)c(CN9CCOCC9)c(F)c8)c7n6)cn5)CC4)cc3C2=O)C(=O)N1` (stereo not shown) [JA-267, 5-((6-(4-(4-(8-(3,5-Difluoro-4-(morpholinomethyl)phenyl)quinoxalin-2-yl)-1H-pyrazol-1-yl)piperidin-1-yl)hexyl)oxy)-2-(2,6-dioxopiperidin-3-yl)isoindoline-1,3-dione], the IC50 was 426 nM. For the compound `CS(=O)(=O)c1ccc(-c2cccc3nc(Nc4ccc(N5CCN(C(=O)CCCCCCc6ccc7c(c6)C(=O)N(C6CCC(=O)NC6=O)C7)CC5)cc4)nn23)cc1` (stereo not shown) [JA-268, 3-(6-(7-(4-(4-((5-(4-(methylsulfonyl)phenyl)-[1,2,4]triazolo[1,5-a]pyridin-2-yl)amino)phenyl)piperazin-1-yl)-7-oxoheptyl)-1-oxoisoindolin-2-yl)piperidine-2,6-dione], the IC50 came out at 5.4 nM. As to `O=C1CCC(N2Cc3ccc(CCCCCCC(=O)N4CCC(n5cc(-c6cnc7cccc(-c8cc(F)c(CN9CCOCC9)c(F)c8)c7n6)cn5)CC4)cc3C2=O)C(=O)N1` (stereo not shown) [JA-269, 3-(6-(7-(4-(4-(8-(3,5-difluoro-4-(morpholinomethyl)phenyl)quinoxalin-2-yl)-1H-pyrazol-1-yl)piperidin-1-yl)-7-oxoheptyl)-1-oxoisoindolin-2-yl)piperidine-2,6-dione], the IC50 was determined as 3.8 nM. Turning to `O=C1CCC(N2Cc3cc(CCCCCCC(=O)N4CCC(n5cc(-c6cnc7cccc(-c8cc(F)c(CN9CCOCC9)c(F)c8)c7n6)cn5)CC4)ccc3C2=O)C(=O)N1` (stereo not shown) [JA-270, 3-(5-(7-(4-(4-(8-(3,5-Difluoro-4-(morpholinomethyl)phenyl)quinoxalin-2-yl)-1H-pyrazol-1-yl)piperidin-1-yl)-7-oxoheptyl)-1-oxoisoindolin-2-yl)piperidine-2,6-dione], the IC50 turned out to be 562 nM.

In the case of `O=C1CCC(N2Cc3cc(C#CCCCCC(=O)N4CCC(n5cc(-c6cnc7cccc(-c8cc(F)c(CN9CCOCC9)c(F)c8)c7n6)cn5)CC4)ccc3C2=O)C(=O)N1` (stereo not shown) [JA-271, 3-(5-(7-(4-(4-(8-(3,5-Difluoro-4-(morpholinomethyl)phenyl)quinoxalin-2-yl)-1H-pyrazol-1-yl)piperidin-1-yl)-7-oxohept-1-yn-1-yl)-1-oxoisoindolin-2-yl)piperidine-2,6-dione], the concentration for half-maximal inhibition (IC50) worked out at 157 nM.
